The values below come from patent US5602099A, “δ opioid receptor antagonists” (Aktiebolaget Astra, priority 1993, dated 1997).

A word on the IC50: it is the midpoint of a concentration-inhibition curve. Lower therefore signals inhibition by little substance. Usually Ki stands for a dissociation constant, usually derived from enzyme kinetics or from competition with a known ligand.

Structures are written as SMILES. Where two headings read alike, the source gives them in different places. Peptide text beside a SMILES is read from it.

The target of experiment [1] is T1, μ opioid receptors (Cavia porcellus, UniProt P97266). Briefly: Guinea pig ileum (GPI) bioassay, inhibition of electrically evoked contractions. Format: cell-based. To be noted: agonist potency. The source says:
(§1) a) Biosassys based on inhibition of electrically evoked contractions of the mouse vas deferens (MVD) and of the guinea pig ileum (GPI). In the GPI assay the opioid effect is primarily mediated by μ opioid receptors, whereas in the MVD assay the inhibition of the contractions is mostly due to interaction with δ opioid receptors.
(§2) The GPI and MVD bioassays were carded out as reported in P. W. Schiller et al., Biochem. Biophys. Res. Commun 85, 1332-1338 (1978) and J. Di Maio et al., J. Med. Chem. 25, 1432-1438 (1982). A log dose-response curve was determind with [Leu^5 ]enkephalin as standard for each ileum and vas preparation, and IC50 values of the compounds being tested were normalized according to A. A Waterfield et al., Eur. J. Pharmacol. 58, 11-18 (1979). […] These determinations were made with the MVD assay, using three different δ-selective agonists ([Leu^5 ] enkephalin, DPDPE and [D-Ala^2 ]deltorphin I].

The target of experiment [2] is T2, δ opioid receptors (Mus musculus, UniProt P32300).
T2 construct: Bioassays Using Isolated Organ Preparations; from tissue; host or cells: mouse vas deferens (isolated organ)
As to the kind of experiment: Mouse vas deferens (MVD) bioassay, antagonism of electrically evoked contraction inhibition by δ-selective agonists. Format: tissue-based. The settings on record: MVD assay, means of 3-8 determinations.
From the text: as §1, §2

Experiment [3] deals with T1, μ opioid receptors. The settings on record: literature value; cited from earlier work.
Experiment [4] has as its target T3, μ opioid receptor (Rattus norvegicus, UniProt P33535).
T3 construct: Male Sprague-Dawley rats (300-350 g) from the Canadian Breeding Laboratories were decapitated and after removal of the cerebellum the brains were homogenized; from tissue; host or cells: rat brain (without cerebellum) membranes, male Sprague-Dawley
As to the kind of experiment: μ opioid receptor binding assay, displacement of [3H]DAMGO from rat brain membranes. An excerpt: (§3) In the case of κ-ligands guinea pig brain homogenates were used, since the relative proportion of κ-binding sites is higher in guinea pig brain than in rat brain. The experimental procedure being used in our laboratory represents a modified version of the binding assay described by Pasternak et al. (Mol. Pharmacol. 11, 340-351, (1975)). Male Sprague-Dawley rats (300-350 g) from the Canadian Breeding Laboratories were decapitated and after removal of the cerebellum the brains were homogenized in 30 volumes of ice-cold standard buffer (50 mM Tris-HCl, pH 7.7). After centrifugation at 30,000×g for 30 min at 4° C. the membranes were reconstituted in the original volume of standard buffer and incubated for 30 min at 37° C. (to realease bound endogenous ligands). […] The incubation was terminated by filtration through Batman GF/B filters under vacuum at 4° C. Following two washings with 5 ml portions of ice-cold standard buffer the filters were transferred to scintillation vials and treated with 1 ml Protosol (New England Nuclear) for 30 min prior to the addition of 0.5 ml acetic acid and 10 ml Aquasol (New England Nuclear). After shaking for 30 min the vials were counted at an efficiency of 40-45%. All experiments were performed in duplicates and repeated at least three times. […] Values of half-maximal inhibition (IC50) of specific binding were obtained graphically from semilogarithmic plots. From the measured IC50-values, binding inhibition constants (Ki) were then calculated based on Cheng and Prusoff's equation (Biochem, Pharmacol. 22, 3099-3102 (1973)). Ratios of the Ki -values in the μ-, δ- and κ-representative binding assays are a measure of the receptor selectivety of the compound under investigation (e.g. Ki^μ /Ki^δ indicates the selectivity for δ-receptors versus μ-receptors).
In general terms: Displacement assays read how much labelled ligand stays bound in the presence of the test substance.

Experiment [5] concerns the target T4, δ opioid receptor (Rattus norvegicus, UniProt P33533).
T4 construct: Male Sprague-Dawley rats (300-350 g) from the Canadian Breeding Laboratories were decapitated and after removal of the cerebellum the brains were homogenized; from tissue; host or cells: rat brain (without cerebellum) membranes, male Sprague-Dawley
As to the kind of experiment: δ opioid receptor binding assay, displacement of δ-selective radioligand from rat brain membranes. To be noted: for Ki^μ /Ki^δ: δ-selectivity ratio.
From the text: as §3

[6] abbreviates: Ke (nM) against DPDPE, δ agonist DPDPE.
Where [7] appears, read: Ke (nM) against [D-Ala2]deltorphin I, δ agonist [D-Ala2]deltorphin I.
The mark [8] stands for this setting: Ke (nM) against [Leu5]Enkephalin, δ agonist [Leu5]enkephalin.
Where [9] appears, read: δ agonist DPDPE, read-out: Ke (nM) against DPDPE.
The mark [10] stands for this setting: δ agonist [D-Ala2]deltorphin I, read-out: Ke (nM) against [D-Ala2]deltorphin I.

T3 sequence (P33535 whole entry): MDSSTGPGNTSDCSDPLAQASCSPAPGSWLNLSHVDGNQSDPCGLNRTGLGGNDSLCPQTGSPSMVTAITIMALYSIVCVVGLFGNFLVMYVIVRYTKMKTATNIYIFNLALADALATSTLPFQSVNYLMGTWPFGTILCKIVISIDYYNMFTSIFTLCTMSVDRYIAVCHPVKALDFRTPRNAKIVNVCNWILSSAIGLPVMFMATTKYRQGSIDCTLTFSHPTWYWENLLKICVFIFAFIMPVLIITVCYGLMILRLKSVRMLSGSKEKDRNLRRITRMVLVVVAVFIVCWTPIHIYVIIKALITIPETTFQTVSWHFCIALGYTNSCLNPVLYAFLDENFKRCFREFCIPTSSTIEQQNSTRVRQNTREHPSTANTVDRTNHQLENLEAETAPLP
T2 sequence (P32300 whole entry): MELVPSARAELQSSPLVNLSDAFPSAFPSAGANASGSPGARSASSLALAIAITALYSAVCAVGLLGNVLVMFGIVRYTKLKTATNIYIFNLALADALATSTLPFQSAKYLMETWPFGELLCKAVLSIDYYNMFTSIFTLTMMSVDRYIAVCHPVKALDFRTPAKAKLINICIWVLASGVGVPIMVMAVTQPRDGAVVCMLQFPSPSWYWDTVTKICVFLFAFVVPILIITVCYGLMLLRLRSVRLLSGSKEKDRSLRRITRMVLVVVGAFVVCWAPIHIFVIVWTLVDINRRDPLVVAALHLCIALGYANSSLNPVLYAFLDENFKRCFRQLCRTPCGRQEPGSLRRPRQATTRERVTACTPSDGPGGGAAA
T4 sequence (P33533 whole entry): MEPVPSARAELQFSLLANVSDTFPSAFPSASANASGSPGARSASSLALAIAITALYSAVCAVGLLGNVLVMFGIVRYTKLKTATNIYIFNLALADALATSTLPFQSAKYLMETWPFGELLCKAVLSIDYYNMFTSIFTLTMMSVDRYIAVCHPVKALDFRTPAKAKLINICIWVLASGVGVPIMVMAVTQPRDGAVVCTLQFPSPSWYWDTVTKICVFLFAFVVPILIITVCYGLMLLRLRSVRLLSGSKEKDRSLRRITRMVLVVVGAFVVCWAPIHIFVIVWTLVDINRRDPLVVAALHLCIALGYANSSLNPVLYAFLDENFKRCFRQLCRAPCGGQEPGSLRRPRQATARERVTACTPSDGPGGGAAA
T1 sequence (P97266 whole entry, looked up): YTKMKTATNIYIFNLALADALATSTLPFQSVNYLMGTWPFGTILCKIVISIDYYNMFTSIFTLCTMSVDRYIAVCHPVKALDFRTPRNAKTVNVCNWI

In experiment [1], `Cc1cc(O)cc(C)c1C[C@H](N)C(=O)N1Cc2ccccc2C[C@H]1CN[C@@H](Cc1ccccc1)C(=O)N[C@@H](Cc1ccccc1)C(N)=O` [HDmtTic.psi.[CH2NH]PhePheNH2, H-Dmt-Tic.PSI.[CH2 --NH]Phe-Phe-NH2] displayed a 50% inhibitory concentration (IC50) of 7.71 nM. The Kb was 0.42 nM in experiment [2] (setting [6]), 0.486 nM in experiment [2] (setting [7]) and 0.47 nM in experiment [2] (setting [8]).
As to `Oc1ccc2c3c1O[C@H]1c4[nH]c5ccccc5c4C[C@@]4(O)[C@@H](C2)N(CC2CC2)CC[C@]314` [Naltrindole, naltrindole, reference compound], the Kb in experiment [2] (setting [8]) stood at 0.85 nM; in experiment [2] (setting [9]) it was 0.632 nM; in experiment [2] (setting [10]), 0.636 nM. Besides, the “Ke (μ antagonist) in the guinea pig ileum (GPI) assay” value in experiment [3] was 29 nM.
Consider `N[C@@H](Cc1ccc(O)cc1)C(=O)N1Cc2ccccc2C[C@H]1C(=O)N[C@@H](Cc1ccc2ccccc2c1)C(=O)N[C@@H](Cc1ccccc1)C(=O)O` [HTyrTic-2-NalPheOH, H-Tyr-Tic-2-Nal-Phe-OH] (HELM PEPTIDE1{Y.[Tic].[O=C([C@H](Cc1ccc2ccccc2c1)N[*:1])[*:2]].F}$$$$V2.0), for which the Ki in experiment [4] amounted to 6330 nM; in experiment [5], 1.31 nM. Also, in experiment [5], the “Ki^μ /Ki^δ” value is reported as 4830. The figures for the Kb in experiment [2] (setting [6]), in experiment [2] (setting [7]) and in experiment [2] (setting [8]) were 4.41 nM, 4.17 nM and 2.64 nM, respectively.
On to `N[C@@H](Cc1ccc(O)cc1)C(=O)N1Cc2ccccc2C[C@H]1CN[C@@H](Cc1ccccc1)C(=O)O` [HTyrTic-.psi.[CH2NH]PheOH, H-Tyr-Tic.PSI.[CH2 -NH]Phe-OH], for which the Ki in experiment [4] (rat brain membranes, means of 3 determinations, read-out: Ki^μ) turned out to be 10800 nM; in experiment [5] (rat brain membranes, means of 3 determinations, read-out: Ki^.xi.), 1.94 nM. In addition, the Kb in experiment [2] (setting [9]) was 9.06 nM; in experiment [2] (setting [10]), 8.24 nM; in experiment [2] (δ agonist [Leu5]enkephalin, read-out: Ke (nM) against [Leu5]Enkephalin), 9.12 nM.
In the case of `Cc1cc(O)cc(C)c1C[C@H](N)C(=O)N1Cc2ccccc2C[C@H]1CN[C@@H](Cc1ccccc1)C(=O)N[C@@H](Cc1ccccc1)C(=O)O` [HDmtTic.psi.[CH2NH]PhePheOH, H-Dmt-Tic.PSI.[CH2 --NH]Phe-Phe-OH], the Ki in experiment [4] was determined as 95.5 nM; in experiment [5], 1.7 nM. Moreover, the Kb stood at 0.196 nM in experiment [2] (setting [6]), 0.157 nM in experiment [2] (setting [7]) and 0.259 nM in experiment [2] (setting [8]).
On to `CN[C@@H](Cc1ccc(O)cc1)C(=O)N1Cc2ccccc2C[C@H]1C(=O)N[C@@H](Cc1ccccc1)C(=O)N[C@@H](Cc1ccccc1)C(=O)O` [Tyr(N^α Me)-TicPhePheOH, Tyr(N^α Me)-Tic-Phe-Phe-OH] (HELM PEPTIDE1{[meY].[Tic].F.F}$$$$V2.0), for which the inhibitory constant (Ki) in experiment [4] is 13400 nM; in experiment [5] it was 1.29 nM. For the same compound, the values for the Kb in experiment [2] (setting [6]), in experiment [2] (setting [7]) and in experiment [2] (setting [8]) were 1.22 nM, 0.436 nM and 1.01 nM, respectively.
Regarding `N[C@@H](Cc1ccc(O)cc1)C(=O)N1Cc2ccccc2C[C@H]1C(=O)N[C@@H](Cc1c[nH]cn1)C(=O)N[C@@H](Cc1ccccc1)C(=O)O` [HTyrTicHisPheOH, H-Tyr-Tic-His-Phe-OH] (HELM PEPTIDE1{Y.[Tic].H.F}$$$$V2.0), the inhibition constant Ki in experiment [4] came out at 17000 nM; in experiment [5], 1.48 nM. Moreover, in experiment [5], the “Ki^μ /Ki^δ” value is recorded as 11500. In addition, the Kb in experiment [2] (setting [6]) is 18.2 nM; in experiment [2] (setting [7]) it was 18.7 nM; in experiment [2] (setting [8]), 20.1 nM.
